Measured values published in patent US4117121A, “Method of increasing bile flow and decreasing lipid levels” (Hoffmann-La Roche Inc., priority 1977, dated 1978).

What was measured:
bile flow [1] = experiment: Stimulation of bile flow (Example 1); assay type: in vivo, female albino rats (Charles River); conditions: 100 mg orally, over the Na-TC control
Description: (§1) In these studies female albino rats (Charles River), weighing 300 ± 10 g were kept on a Purina chow diet ad libitum until the time of operation. […] This preparation enabled the production of lymph at a constant rate, the infusion of a bile salt, and the simultaneous collection of bile.
(§2) All animals received, after operation, a continuous duo denal infusion of sodium taurocholate (Na-TC) in 0.85% NaCl. One day after operation, the rats were given, by stomach intubation, an emulsion containing about 4% triolein, 20 μC of 4-^14 C-cholesterol (Specific Activity 61.7 mC/mM, 159 μC/mg), 2 mg of cholesterol, in addition to protein, carbohydrate, and saline. Both the Na-TC and the cholesterol carrier employed gave a single spot on either thin layer or glass fiber paper chromatograph so no further purification was attempted. The commercial glyceryl trioleate contained a large percentage of di- and monoolein. Triolein was, therefore, purified by passage through a silicic acid column; the final product gave a single spot on either glass fiber paper or thin layer chromatography.
(§3) To 4 ml of this emulsion was added 100 mg of either Na-TC (control group) or compounds A through D. This mixture was given orally to the animals.
(§4) The sampling of thoracic duct lymph and of bile was divided into two collecting periods, 0-8 and 9-24 h after emulsion administration.
In this table the results are expressed as the % increase in bile flow over the control.

rat pancreatic lipase = molecular target: T1, rat pancreatic lipase (Rattus norvegicus, UniProt P27657); experiment: Inhibition of rat pancreatic lipase in vitro; assay type: biochemical; conditions: 14C-triolein emulsion, pH 8.6, 20 min at 37° C.
T1 sequence (P27657 17-465): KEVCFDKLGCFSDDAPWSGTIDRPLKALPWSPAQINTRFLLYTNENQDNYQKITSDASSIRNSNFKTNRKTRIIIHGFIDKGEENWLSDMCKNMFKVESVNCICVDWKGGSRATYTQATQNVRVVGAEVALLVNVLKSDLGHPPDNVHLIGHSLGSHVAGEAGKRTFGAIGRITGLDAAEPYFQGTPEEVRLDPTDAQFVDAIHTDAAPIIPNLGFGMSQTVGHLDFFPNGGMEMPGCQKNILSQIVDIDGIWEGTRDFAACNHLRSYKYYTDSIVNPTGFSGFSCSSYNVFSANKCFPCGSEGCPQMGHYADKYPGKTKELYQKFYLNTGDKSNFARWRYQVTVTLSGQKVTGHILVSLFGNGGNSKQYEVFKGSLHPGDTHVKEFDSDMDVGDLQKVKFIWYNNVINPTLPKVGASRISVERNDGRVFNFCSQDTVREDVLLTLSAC
Procedure: Dietary long-chain triglycerides must be hydrolyzed by pancreatic lipase in the duodenum before absorption can occur. […] The capacity of compounds B and C to inhibit rat pancreatic lipase in vitro was investigated. The ability of compounds to inhibit rat pancreatic lipase is determined by analyzing the nmoles of free fatty acid [oleic acid] released from [^14 C]-triolein. Compounds of B and C are added to an emulsion consisting of: 200,000 dpm ^14 C-triolein, 7.5 mg triolein, 0.75 mg sodium taurocholate, 15 mg bovine serum albumin and 0.9 ml 0.2 M tris-HCl - 0.15 M NaCl, pH 8.6, per assay. Water and/or pancreatic lipase is added to make an assay volume of 1.0 ml. The emulsion is incubated for 20 min at 37° C. in a shaking water bath. The reaction is stopped by the addition of isopropanol; H2 SO4 (40:1). The lipids are extracted twice with 3 ml volumes of hexane. The liberated fatty acids are extracted with 2 ml of 0.1 N KOH in 50% methanol. A 1 ml aliquot of the KOH layer is placed in a scintillation vial with 10 ml of 2,5-bis-2- (5-tertiarybutyl benzoxazolyl)thiophene. The radioactivity is determined in a scintillation counter. Data are expressed as nmoles free fatty acid [oleic acid] released.

[2] = tested on: intestinal absorbtion of CHOLESTEROL; experiment: Intestinal absorption of cholesterol: appearance of 4-14C-cholesterol in thoracic duct lymph; assay type: in vivo, female albino rats (Charles River); conditions: 100 mg orally, vs Na-TC control, 14C-cholesterol in lymph; for % decrease of cholesterol, 0-8 hours: 0-8 hours after emulsion; for % decrease of cholesterol, 9-24 hours: 9-24 hours after emulsion
Description: as §1, §2, §3, §4
Lymph specimens were lyophilized and the lipids in the residue were extracted with ethanol-isopropyl ether, 2:1 parts by volume, by procedure described in Gallo-Torres, et al; Biophys. Acta, 176 605-615 (1969). An aliquot of the lipid extract was placed on a small piece of glass fiber paper and counted. Another aliquot was used for the separation of cholesterol and its esters by glass fiber paper chromatography.
The effect of compounds A through D derivatives on the appearance of total ^14 C-cholesterol in the thoracic duct lymph of rats is summarized in Table I. Of the dose administered to the control animals, 5 × 10^5 dpm were recovered in the first 8 h and 3.4 × 10^6 dpm in the period of 9-24 h following administration of the emulsion. […] The tolerance of cholesterol in Table I is the % decrease in the 4-^14 C-cholesterol over the control appearing in the lymph during the specified period.

bile flow [3] = experiment: Comparative effect on bile flow (Example 2); assay type: in vivo, female rats; conditions: 100 mg intragastrically, vs average bile of two hours preceding treatment
Procedure: Female rats, weighing approximately 250 g, were fasted overnight prior to surgery; water was allowed ad libitum. The surgical procedures involving cannulation of the upper part of the common bile duct were carried out under Penthrane anesthesia. A catheter placed in the avascular part of the stomach was used for intragastric administration of emulsion; another catheter was placed in the duodenum. After surgery the rats were kept in restraining cages. Intraduodenal infusion of bile (collected previously from donors) was then started at the rate of 0.9 ml/hr. The infusion pressure was kept constant by means of a pump. Hydration was maintained by allowing the animals to drink saline ad libitum.
All rats were allowed~20 hours to recover from surgery. During this post-surgical period bile was collected in pooled samples of 16-18 hours. Having achieved steady hourly flow, the two samples obtained prior to the actual experiment were collected individually and considered as a control standard for each rat.
Bile samples were collected hourly, over a 24-hour period. The volume was measured to the nearest 0.1 ml.
The values in Table III were expressed for the purpose of the analysis, as a percent change from average bile collected in the two hours immediately preceding treatment.

[4] = tested on: cholesterol-7α-hydroxylase; experiment: Effect on activity of cholesterol-7α-hydroxylase; conditions: in words
triglyceride absorption = experiment: Inhibition of absorption of dietary triglyceride after oral corn oil load; assay type: in vivo, rats
Procedure: The ability of compound A to inhibit the absorption of dietary triglyceride in rats is determined by analyzing the rise in serum triglycerides after an oral load of corn oil. To 24 hours fasted rats (6 per group), compound A was administered orally at 1.1 mmoles/kg 15 minutes before a single oral dose of corn oil ([…]). Blood samples (0.4 ml) were collected from the rat tail 0, 2, 4, 6, 8 and 24 hours after compound administration. Each rat is its own control. Plasma samples were analyzed for triglyceride content by the procedure set forth in Kessler and H. Lederer, Tehnicon Symposium 1965 Automation in Analytical Chemistry Ed. L. Skeggs, published Mediad Inc. N.Y. (1966)pp341. The data in Table V is expressed as mg% change in plasma triglyceride levels compared to zero time control values at each time interval. This change in plasma triglycerides was determined by calculating the difference between the triglyceride level at each time point compared to zero time control level.
The procedure of Example 4 was followed except groups of 4 were utilized. Compound B was administered.

SMILES | % increase of Bile Flow, 0-8 hours (bile flow [1]) | % increase of Bile Flow, 9-24 hours (bile flow [1]) | % decrease of cholesterol, 0-8 hours [2] | % decrease of cholesterol, 9-24 hours [2] | % increase in Bile Flow, 0-12 hours (bile flow [3]) | % increase in Bile Flow, 13-24 hours (bile flow [3]) | % increase in Bile Flow, overall 24 hour period (bile flow [3]) | further results
C[C@H](CC(=O)O)[C@H]1CC[C@H]2[C@@H]3CC[C@@H]4C[C@H](O)CC[C@]4(C)[C@H]3C[C@H](O)[C@]12C [Compound C, 3α, 12α-dihydroxy-5-β-norcholanic acid] | +4% | +30% | 40% | 53% | – | – | – | Ki (rat pancreatic lipase): 1 mM
C[C@H](CCO)[C@H]1CC[C@H]2[C@@H]3CC[C@@H]4C[C@H](O)CC[C@]4(C)[C@H]3C[C@H](O)[C@]12C [Compound D, 3α, 12α, 23-trihydroxy-5β-24-norcholane] | +22% | +14% | 84% | 44% | – | – | – | –
C[C@H](CCC(=O)O)[C@H]1CC[C@H]2[C@@H]3[C@H](O)C[C@@H]4C[C@H](O)CC[C@]4(C)[C@H]3CC[C@]12C [CDC, chenodeoxycholic acid] | – | – | – | – | +504% | +9% | +513% | –
C[C@H](CCC(=O)O)[C@H]1CC[C@H]2[C@@H]3[C@H](O)C[C@@H]4C[C@H](O)CC[C@]4(C)[C@H]3C[C@H](O)[C@]12C [cholic acid, 3α, 7α, 12α-trihydroxy-5β-cholanic acid] | – | – | – | – | +161% | – | +38% | effect on the activity of cholesterol-7α-hydroxylase [4]: adverse effect
C[C@H](CCC(=O)O)[C@H]1CC[C@H]2[C@@H]3CC[C@@H]4C[C@H](O)CC[C@]4(C)[C@H]3C[C@H](O)[C@]12C [deoxycholic acid, 3α, 12α-dihydroxy-5β-cholanic acid] | – | – | – | – | +335% | – | +219% | effect on the activity of cholesterol-7α-hydroxylase [4]: adverse effect
C[C@H](C(=O)O)[C@H]1CC[C@H]2[C@@H]3CC[C@@H]4C[C@H](O)CC[C@]4(C)[C@H]3C[C@H](O)[C@]12C [Compound B, 3α, 12α-dihydroxy-5β-23,24-bisnorcholanic acid] | +38% | +47% | 0% | 0% | +517% | +113% | +630% | Ki (rat pancreatic lipase): 14 mM; Change in Plasma Triglycerides, 2 hr (triglyceride absorption; Example 5, 2 hr, procedure of Example 4, groups of 4): -3 mg%; Change in Plasma Triglycerides, 4 hr (triglyceride absorption; Example 5, 4 hr, procedure of Example 4, groups of 4): 7 mg%; Change in Plasma Triglycerides, 6 hr (triglyceride absorption; Example 5, 6 hr, procedure of Example 4, groups of 4): 15 mg%; Change in Plasma Triglycerides, 8 hr (triglyceride absorption; Example 5, 8 hr, procedure of Example 4, groups of 4): 54 mg%; Change in Plasma Triglycerides, 24 hr (triglyceride absorption; Example 5, 24 hr, procedure of Example 4, groups of 4): 30 mg%
C[C@]12CC[C@@H](O)C[C@H]1CC[C@@H]1[C@@H]2C[C@H](O)[C@]2(C)[C@@H](C(=O)O)CC[C@@H]12 [Compound A, 3α, 12α-dihydroxy-etiocholane-17β-carboxylicacid] | +18% | -3% | 0% | 79% | +286% | +79% | +365% | Change in Plasma Triglyceride Levels, 4 hr (triglyceride absorption; 4 hr, 1.1 mmoles/kg orally, 15 minutes before corn oil, 6 per group, vs zero time): 50 ± 13 mg%; Change in Plasma Triglyceride Levels, 6 hr (triglyceride absorption; 6 hr, 1.1 mmoles/kg orally, 15 minutes before corn oil, 6 per group, vs zero time): 113 ± 34 mg%; Change in Plasma Triglyceride Levels, 8 hr (triglyceride absorption; 8 hr, 1.1 mmoles/kg orally, 15 minutes before corn oil, 6 per group, vs zero time, *p<0.05): 164 ± 40 mg%; Change in Plasma Triglyceride Levels, 24 hr (triglyceride absorption; 24 hr, 1.1 mmoles/kg orally, 15 minutes before corn oil, 6 per group, vs zero time): 83 ± 11 mg%; Change in Plasma Triglyceride Levels, 2 hr (triglyceride absorption; po, 1100 umol/kg): 37 ± 9 mg%
